Experimental data published in patent publication US20130158035A1, “[…] COMPOUNDS” (Brigham Young University, priority 2010, published 2013).

system: MDCK cells; test: HGF-induced epithelial-mesenchymal transition / migration of MDCK cells on transwell filters (crystal violet densitometry); assay type: cell-based; details: Canis lupus familiaris, MDCK, 24 h, Table 6, 10 μM compound, then HGF, percentage like untreated controls (unstimulated cells = maximal effect, HGF only = nil)
Protocol: MDCK cells were seeded at confluency into the wells of a transwell filter in DMEM with 10% fetal bovine serum. Cells were cultured for 24 hours. Test compounds, dissolved in DMSO, were added to each test well to a 10 μM final concentration, and then hepatocyte growth factor (HGF) was then added. The MDCK cells were cultured for 24 hours. Concurrently, controls treated with and without HGF and with no test compounds were also prepared.
After post-HGF addition culturing, transwell filters were prepared by repeated washing using ice cold PBS. The cells were then fixed with paraformaldehyde (3.7%) on ice for 15 minutes to the filters. After fixation, the transwell filters were washed repeatedly with PBS followed by staining with crystal violet for 15 minutes. The transwell filters were washed again with distilled water.
The upper surface of the transwell filters were swabbed using a cotton-tipped probe. The filters were photographed using a gel documentation system. Densitometry measurements were made on the test samples and compared with control samples.

Point of comparison: `Cc1c(C(=O)OC2CCCC2C)[nH]c2c1C(=O)CC(c1cccs1)C2` (centres unmarked) [Compound C-18], inhibition at 10 µM 92.2%. Against it:
- Cc1c(C(=O)OCc2ccccc2)[nH]c2c1C(=O)CC(c1cccs1)C2 (centres unmarked) [Compound C-5] — lower, 41.6%
- Cc1ccc(COC(=O)c2[nH]c3c(c2C)C(=O)CC(c2cccs2)C3)cc1 (centres unmarked) [Compound C-6] — lower, 48.4%
- Cc1c(C(=O)OC(C)C)[nH]c2c1C(=O)CC(c1cccs1)C2 (centres unmarked) [Compound C-7] — lower, 35.9%
- CCOC(=O)c1[nH]c2c(c1C)C(=O)CC(c1ccccc1)C2 (centres unmarked) [Compound C-8] — lower, 30.6%
- CCCc1c(C(=O)OCC)[nH]c2c1C(=O)CC(c1cccs1)C2 (centres unmarked) [Compound C-9] — lower, 15.3%
- Cc1c(C(=O)OC2CCCC2)[nH]c2c1C(=O)CC(c1cccs1)C2 (centres unmarked) [Compound C-10] — lower, 8.8%
- Cc1c(C(=O)OC2CCCCC2)[nH]c2c1C(=O)CC(c1cccs1)C2 (centres unmarked) [Compound C-11] — lower, < 5%
- CCOC(=O)c1[nH]c2c(c1C)C(=O)CC(c1ccc(OC)cc1)C2 (centres unmarked) [Compound C-13] — lower, < 5%
- Cc1c(C(=O)OC2CCCC2)[nH]c2c1C(=O)CC(c1ccco1)C2 (centres unmarked) [Compound C-14] — lower, < 5%
- Cc1c(C(=O)OCc2ccccc2)[nH]c2c1C(=O)CC(c1ccco1)C2 (centres unmarked) [Compound C-15] — lower, < 5%
- COC(=O)c1[nH]c2c(c1C)C(=O)CC(c1ccc(OC)cc1)C2 (centres unmarked) [Compound C-16] — lower, < 5%
- Cc1c(C(=O)OCC2CCCO2)[nH]c2c1C(=O)CC(c1cccs1)C2 (centres unmarked) [Compound C-17] — lower, 75.7%

same assay, conditions: Table 6; 10 μM compound, then HGF, 24 hours; percentage like untreated controls (unstimulated cells = maximal effect, HGF only = nil)

`Cc1c(C(=O)OC2CCCC2C)[nH]c2c1C(=O)CC(c1cccs1)C2` (centres unmarked) [Compound C-12] was tested, and the “Assay Value” was <5%.
